Laboratory results taken from ChEMBL document CHEMBL3885861, “Open TG-GATES”.

Species: Rattus norvegicus
Experiment: Open TG-GATES - Regimen: Single
Type: toxicity, organism-based, Sprague-Dawley
Set-up: regimen Single, gender Male, age 6 weeks
Details: in vivo, po, 0 mg/kg, route gavage, dose level Control; for APTT / Bas / Eos / Fbg / Hb / Ht / Lym / MCH / MCHC / MCV / Mono / Neu / PT / Plat / RBC / Ret / WBC: tissue Blood; for KIDNEY_L / KIDNEY_R / KIDNEY_TOTAL: tissue Kidney; for LIVER: tissue Liver; for A/G / ALP / ALT / AST / BUN / CRE / Ca / Cl / DBIL / GLC / IP / K / LDH / Na / PL / RALB / TBIL / TC / TG / TP / gamma-GTP: tissue Plasma

Q: What does the source list for `C[C@](N)(Cc1ccc(O)c(O)c1)C(=O)O` [METHYLDOPA]?
A: TERMINAL_BW (3 h): 189.8 g; APTT (3 h): 16.9 s; Bas (3 h): 0%; Eos (3 h): 0.8%; Fbg (3 h): 253.4 mg/dL; Hb (3 h): 13.1 g/dL; Ht (3 h): 39.1%; Lym (3 h): 75%; MCH (3 h): 22.2 pg; MCHC (3 h): 33.4%; MCV (3 h): 66.5 fL; Mono (3 h): 3.2%; Neu (3 h): 20.4%; PT (3 h): 12.3 s; Plat (3 h): 118.6 x10_4/uL; RBC (3 h): 588.6 x10_4/ul; Ret (3 h): 11%; WBC (3 h): 80.9 x10_2/uL; KIDNEY_L (3 h): 0.8 g; KIDNEY_R (3 h): 0.8 g; KIDNEY_TOTAL (3 h): 1.6 g; LIVER (3 h): 8 g; A/G (3 h): 0.9; ALP (3 h): 1671.4 IU/L; ALT (3 h): 54.6 IU/L; AST (3 h): 84.8 IU/L; BUN (3 h): 10 mg/dL; CRE (3 h): 0.2 mg/dL; Ca (3 h): 11.6 mg/dL; Cl (3 h): 106.8 meq/L; DBIL (3 h): 0.022 mg/dL; GLC (3 h): 164.4 mg/dL; IP (3 h): 9.4 mg/dL; K (3 h): 4.6 meq/L; LDH (3 h): 61.2 IU/L; Na (3 h): 141.8 meq/L; PL (3 h): 147.2 mg/dL; RALB (3 h): 2.6 g/dL; TBIL (3 h): 0.08 mg/dL; TC (3 h): 88 mg/dL; TG (3 h): 68.4 mg/dL; TP (3 h): 5.6 g/dL; gamma-GTP (3 h): 1.2 IU/L; TERMINAL_BW (6 h): 187.9 g; APTT (6 h): 17 s; Bas (6 h): 0%; Eos (6 h): 1%; Fbg (6 h): 266.8 mg/dL; Hb (6 h): 13.4 g/dL; Ht (6 h): 40.1%; Lym (6 h): 70.4%; MCH (6 h): 21.6 pg; MCHC (6 h): 33.5%; MCV (6 h): 64.5 fL; Mono (6 h): 3.8%; Neu (6 h): 24.4%; PT (6 h): 12.4 s; Plat (6 h): 120.7 x10_4/uL; RBC (6 h): 622.2 x10_4/ul; Ret (6 h): 9.7%; WBC (6 h): 82.2 x10_2/uL; KIDNEY_L (6 h): 0.8 g; KIDNEY_R (6 h): 0.8 g; KIDNEY_TOTAL (6 h): 1.6 g; LIVER (6 h): 7.3 g; A/G (6 h): 0.9; ALP (6 h): 1652.4 IU/L; ALT (6 h): 45.8 IU/L; AST (6 h): 74 IU/L; BUN (6 h): 8.4 mg/dL; CRE (6 h): 0.2 mg/dL; Ca (6 h): 11.2 mg/dL; Cl (6 h): 109 meq/L; DBIL (6 h): 0.014 mg/dL; GLC (6 h): 177.6 mg/dL; IP (6 h): 10.6 mg/dL; K (6 h): 4.6 meq/L; LDH (6 h): 54.2 IU/L; Na (6 h): 143.4 meq/L; PL (6 h): 128.4 mg/dL; RALB (6 h): 2.6 g/dL; TBIL (6 h): 0.076 mg/dL; TC (6 h): 81.2 mg/dL; TG (6 h): 43 mg/dL; TP (6 h): 5.6 g/dL; gamma-GTP (6 h): 1.2 IU/L; TERMINAL_BW (9 h): 189.5 g; APTT (9 h): 17.4 s; Bas (9 h): 0%; Eos (9 h): 1%; Fbg (9 h): 242 mg/dL; Hb (9 h): 12.7 g/dL; Ht (9 h): 37.7%; Lym (9 h): 75.4%; MCH (9 h): 21.7 pg; MCHC (9 h): 33.7%; MCV (9 h): 64.2 fL; Mono (9 h): 2.4%; Neu (9 h): 20.8%; PT (9 h): 13.6 s; Plat (9 h): 112.1 x10_4/uL; RBC (9 h): 588.8 x10_4/ul; Ret (9 h): 10.4%; WBC (9 h): 74.2 x10_2/uL; KIDNEY_L (9 h): 0.8 g; KIDNEY_R (9 h): 0.8 g; KIDNEY_TOTAL (9 h): 1.7 g; LIVER (9 h): 6.9 g; A/G (9 h): 0.9; ALP (9 h): 1737.2 IU/L; ALT (9 h): 44.4 IU/L; AST (9 h): 77.2 IU/L; BUN (9 h): 10.2 mg/dL; CRE (9 h): 0.1 mg/dL; Ca (9 h): 10.9 mg/dL; Cl (9 h): 108.2 meq/L; DBIL (9 h): 0.014 mg/dL; GLC (9 h): 182.6 mg/dL; IP (9 h): 11 mg/dL; K (9 h): 4.4 meq/L; LDH (9 h): 88 IU/L; Na (9 h): 143.2 meq/L; PL (9 h): 114.8 mg/dL; RALB (9 h): 2.4 g/dL; TBIL (9 h): 0.076 mg/dL; TC (9 h): 74.4 mg/dL; TG (9 h): 30.6 mg/dL; TP (9 h): 5.1 g/dL; gamma-GTP (9 h): 1.2 IU/L; TERMINAL_BW (24 h): 194.8 g; APTT (24 h): 17 s; Bas (24 h): 0%; Eos (24 h): 1%; Fbg (24 h): 237.6 mg/dL; Hb (24 h): 13 g/dL; Ht (24 h): 38.2%; Lym (24 h): 75.8%; MCH (24 h): 22 pg; MCHC (24 h): 34.1%; MCV (24 h): 64.4 fL; Mono (24 h): 3.4%; Neu (24 h): 19.4%; PT (24 h): 12.8 s; Plat (24 h): 113.1 x10_4/uL; RBC (24 h): 594.4 x10_4/ul; Ret (24 h): 9.5%; WBC (24 h): 77.2 x10_2/uL; KIDNEY_L (24 h): 0.9 g; KIDNEY_R (24 h): 0.9 g; KIDNEY_TOTAL (24 h): 1.8 g; LIVER (24 h): 8.8 g; A/G (24 h): 0.9; ALP (24 h): 1858.4 IU/L; ALT (24 h): 55.2 IU/L; AST (24 h): 83 IU/L; BUN (24 h): 13 mg/dL; CRE (24 h): 0.2 mg/dL; Ca (24 h): 11 mg/dL; Cl (24 h): 107.2 meq/L; DBIL (24 h): 0.008 mg/dL; GLC (24 h): 183.6 mg/dL; IP (24 h): 7.8 mg/dL; K (24 h): 4.3 meq/L; LDH (24 h): 69.8 IU/L; Na (24 h): 142 meq/L; PL (24 h): 128.6 mg/dL; RALB (24 h): 2.5 g/dL; TBIL (24 h): 0.062 mg/dL; TC (24 h): 72.6 mg/dL; TG (24 h): 58.2 mg/dL; TP (24 h): 5.3 g/dL; gamma-GTP (24 h): 1 IU/L
